Source: article PMC10488149 (International Journal of Molecular Sciences, 2023)

What was measured:
[1] = target: T1, α1-acid glycoprotein (AGP) (Homo sapiens, UniProt P02763); test: Fluorescence titration
Description: Fluorescence spectra were collected using an emission detector module of the ChirascanPlus spectropolarimeter (APL), fixing the PMU of the detector at 600 mV. For every measurement, a 1 cm quartz cell, which is suitable for CD and fluorescence, was used. Experimental details: 1 cm cell pathlength, 500–310 nm emission scan, λexc 305 nm, and 5 nm excitation bandwidth.

[2] = target: T1, α1-acid glycoprotein (AGP); format: binding
Method: (§1) The Hill fitting was performed with OriginLab.
(§2) The evaluation of molar enthalpies (ΔHm) and entropies (ΔSm) at the melting temperature for the melting process was calculated assuming a two-state native-to-unfolded model. The molar ratios at different temperatures were determined using the linear extrapolations of plateau at T >> Tm and T << Tm for the Boltzmann fitting curves, assuming that only denatured protein was present at T >> Tm and only native at T << Tm. The reversibility was assumed to be around Tm ± 5 °C, and the relative molar ratios for native and denatured species was used to determine the equilibrium constants and the associated Gibbs free energy (ΔGm, from ΔGm = −RT·lnK). Following the given relationship, ΔGm was supposed to be ~0 at the Tm (K^(Tm) ~ 1). ΔHm and ΔSm were calculated at Tm by interpolating with a linear model the ±5 °C region of the ΔGm vs. T curve around Tm, assuming the intercept corresponding to ΔHm, previous correction from °C to Kelvin, and the slope to −ΔSm, assuming a y = a − bx model, where ΔGm^(Tm) = ΔHm^(Tm) − TmΔSm^(Tm) at ΔGm^(Tm) = 0.
(§3) For the thermal denaturations, Boltzmann fitting with the equation y = y0 + A * (frac/(1 + exp ((x − x01)/k1)) + (1 − frac)/(1 + exp((x − x02)/k2))) was used. The SRCD spectra as a function of temperature were recorded with B23 module B with synchrotron operation at 300 or 350 mA, using rotating cell for thermal denaturation with 0.02 cm cell pathlength, 0.5 mm slit, 1 sec integration time, and 1 nm increment in the 260–180 nm spectral region.

[3] = target: T2, human serum albumin (HSA) (Homo sapiens, UniProt P02768); test: Thermal denaturation followed by CD at 191 nm; format: binding; details: HSA with ligand
T2 construct: purchased Sigma A3782
Method: as §1, §2, §3

[4] = target: T1, α1-acid glycoprotein (AGP); test: in vitro; details: isolated α1-acid glycoprotein (AGP) in solution
Method: SRCD single-spectra and UV denaturation experiments were recorded on the module B unit at B23 (Diamond Light Source, Didcot, UK) using a 6-cell sample turret. The following are the experimental parameters for UV denaturation: 30 scans, 260–180 nm range, 0.5 mm slit, 1 s integration time, 1 nm increment. The thermal denaturation experiments were performed with an Applied Photophysics (APL) ChirascanPlus spectropolarimeter. […] The baseline of water or buffer was subtracted from the CD spectra of proteins with or without ligands. Far-UV (180–250 nm) denaturation SRCD measurements were collected in 0.02 cm rotating cells with a 70 μL volume. Thermal denaturations were recorded with both B23 beamline and ChirascanPlus (APL, Leatherhead, UK). For CD titration, the protocol used was to measure the CD spectrum of each protein–ligand mixture at various ligand molar ratios by adding a small aliquot of ligand (few microliters of an appropriate concentration of ligand stock solution) to the protein in the cuvette cell. […] The same method was used for the titration via fluorescence spectroscopy.
The CD spectra were processed using CD Apps [27] and OriginPro. […] The evaluated parameters of melting temperature (Tm) were reported in °C and half-live (t1/2) for photo degradation in s (y = A1exp (−x/t1) + y0, t1/2 = t1log2). […]

T1 sequence (P02763 19-201): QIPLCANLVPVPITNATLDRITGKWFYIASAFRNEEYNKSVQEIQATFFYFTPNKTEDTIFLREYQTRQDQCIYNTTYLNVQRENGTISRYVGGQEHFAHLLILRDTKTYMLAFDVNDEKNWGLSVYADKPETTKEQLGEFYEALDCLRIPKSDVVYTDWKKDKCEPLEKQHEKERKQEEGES
T2 sequence (P02768 25-609): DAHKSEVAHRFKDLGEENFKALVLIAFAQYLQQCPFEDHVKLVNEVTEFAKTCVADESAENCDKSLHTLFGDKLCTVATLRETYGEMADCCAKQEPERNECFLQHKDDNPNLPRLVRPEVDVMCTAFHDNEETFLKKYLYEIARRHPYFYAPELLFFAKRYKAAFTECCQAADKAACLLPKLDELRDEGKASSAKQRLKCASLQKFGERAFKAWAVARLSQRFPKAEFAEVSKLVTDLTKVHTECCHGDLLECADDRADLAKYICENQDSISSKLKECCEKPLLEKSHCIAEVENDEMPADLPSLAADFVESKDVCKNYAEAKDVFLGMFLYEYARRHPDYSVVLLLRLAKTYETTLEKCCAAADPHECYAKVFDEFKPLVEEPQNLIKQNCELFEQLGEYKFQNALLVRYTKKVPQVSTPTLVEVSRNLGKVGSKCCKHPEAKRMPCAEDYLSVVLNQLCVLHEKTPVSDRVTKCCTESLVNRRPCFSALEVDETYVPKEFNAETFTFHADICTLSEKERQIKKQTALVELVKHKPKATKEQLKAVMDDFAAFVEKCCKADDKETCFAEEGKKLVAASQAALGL

Cc1c(N)nc([C@H](CC(N)=O)NC[C@H](N)C(N)=O)nc1C(=O)N[C@H](C(=O)N[C@H](C)[C@@H](O)[C@H](C)C(=O)N[C@H](C(=O)NCCc1nc(-c2nc(C(=O)NCCC[S+](C)C)cs2)cs1)[C@@H](C)O)[C@@H](O[C@@H]1O[C@@H](CO)[C@@H](O)[C@H](O)[C@@H]1O[C@H]1O[C@H](CO)[C@@H](O)[C@H](OC(N)=O)[C@@H]1O)c1c[nH]cn1 [A2, bleomycin A2]
Kd [1]: 13.2 µM

Cc1c(N)nc([C@H](CC(N)=O)NC[C@H](N)C(N)=O)nc1C(=O)N[C@H](C(=O)N[C@H](C)[C@@H](O)[C@H](C)C(=O)N[C@H](C(=O)NCCc1nc(-c2nc(C(=O)NCCCCNC(=N)N)cs2)cs1)[C@@H](C)O)[C@@H](O[C@@H]1O[C@@H](CO)[C@@H](O)[C@H](O)[C@@H]1O[C@H]1O[C@H](CO)[C@@H](O)[C@H](OC(N)=O)[C@@H]1O)c1c[nH]cn1 [B2, bleomycin B2]
Tm (°C) [B] [2]: 51.7 °C | ΔHm, Tm ([2]; AGP with ligand, linear fitting around Tm, AGP alone 127.8): 122.3 kJ^.mol^−1 | ΔSm, Tm ([2]; AGP with ligand, linear fitting around Tm, AGP alone 392.1): 376.5 J·K^−1·mol^−1 | Kd ([1]; isolated α1-acid glycoprotein (AGP) in solution): 13.7 µM | Tm (°C) [A] ([3]; Boltzmann fitting of experimental data, 191 nm, HSA alone 74.1): 65.0 °C | Tm (°C) [B] ([3]; T at which ΔGm,Tm = 0, 191 nm, HSA alone 67.3): 62.2 °C | ΔHm, Tm ([3]; linear fitting around Tm, HSA alone 85.8): 91.0 kJ^.mol^−1 | ΔSm, Tm ([3]; linear fitting around Tm, HSA alone 252.3): 271.6 J·K^−1·mol^−1 | Kd [4]: 1.37 µM
